Test results published in patent publication US5210193A, “Piperazine derivatives” (American Cyanamid Company, priority 1990, dated 1993).
≈ marks a conversion by molar mass, not a printed value. Where “and” joins values, the source holds several entries; their conditions need not be identical. Identical values can stand only once. Counter-ions that a name gives are not always drawn. Like-named read-outs stand apart in the source and are kept apart here. Each block holds one molecule with its values, some of them ahead of it.

Legend:
Test in all cases: in vitro antibacterial MIC, agar plate dilution
Assay type in all cases: cell-based
[1] = system: Enterobacter cloacae MOR 84-30; details: 18 hours, 35° C., monohydrochloride
Summary of the method: (§1)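 Read-out is visible growth inhibition on Mueller-Hinton agar dilution plates incubated 18 hours at 35° C after inoculation of ~10^4 CFU (Steers device), with MIC reported in mcg/ml.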

[2] = system: Enterobacter cloacae VGH 84-39; details: 18 hours, 35° C., monohydrochloride
Summary of the method: as §1

[3] = system: Escherichia coli ATCC 25922; details: 35° C.
Summary of the method: as §1

[4] = system: Escherichia coli CMC 84-11; details: 35° C.
Summary of the method: as §1

[5] = system: Escherichia coli CMC 84-50; details: 18 hours, 35° C., monohydrochloride
Summary of the method: as §1

[6] = system: Escherichia coli MOR 84-20; details: 18 hours, 35° C., monohydrochloride
Summary of the method: as §1

[7] = system: Escherichia coli VGH 84-19; details: 18 hours, 35° C., monohydrochloride
Summary of the method: as §1

[8] = system: Klebsiella pneumoniae CMC 84-31; details: 18 hours, 35° C., monohydrochloride
Summary of the method: as §1

[9] = system: Klebsiella pneumoniae IO 83-5; details: 18 hours, 35° C., monohydrochloride
Summary of the method: as §1

[10] = system: Klebsiella pneumoniae MOR 84-24; details: 18 hours, 35° C., monohydrochloride
Summary of the method: as §1

[11] = system: Morganella morganii CMC 84-37; details: 35° C.
Summary of the method: as §1

[12] = system: Morganella morganii CMC 84-38; details: 18 hours, 35° C., monohydrochloride
Summary of the method: as §1

[13] = system: Morganella morganii MOR 84-45; details: 18 hours, 35° C., monohydrochloride
Summary of the method: as §1

[14] = system: Morganella morganii VHG 84-12; details: Morganella morganii VHG 84-12 (VGH 84-12 for Example 131); 18 hours, 35° C.; monohydrochloride
Summary of the method: as §1

[15] = system: Proteus rettgeri IO 83-21; details: 18 hours, 35° C., monohydrochloride
Summary of the method: as §1

[16] = system: Providencia stuarti CMC 83-3; details: 18 hours, 35° C., monohydrochloride
Summary of the method: as §1

[17] = system: Serratia marcescens CMC 83-74; details: 18 hours, 35° C., monohydrochloride
Summary of the method: as §1

[18] = system: Serratia marcescens K 84-18; details: 35° C.
Summary of the method: as §1

[19] = system: Serratia marcescens MOR 84-41; details: 18 hours, 35° C., monohydrochloride
Summary of the method: as §1

[20] = system: Staphylococcus aureus CMC 83-131; details: 18 hours, 35° C., monohydrochloride
Summary of the method: as §1

[21] = system: Staphylococcus aureus K 82-26; details: 18 hours, 35° C., monohydrochloride
Summary of the method: as §1

[22] = system: Staphylococcus aureus Smith; details: 35° C.
Summary of the method: as §1

[23] = system: Staphylococcus aureus VGH 84-45; details: 35° C.
Summary of the method: as §1

[24] = system: Staphylococcus aureus VGH 84-47; details: 18 hours, 35° C., monohydrochloride
Summary of the method: as §1

[25] = system: Streptococcus faecalis CMC 83-120; details: 18 hours, 35° C., monohydrochloride
Summary of the method: as §1

[26] = system: Streptococcus faecalis UCI 85-19; details: 35° C.
Summary of the method: as §1

[27] = system: Streptococcus faecalis UCI 85-30; details: 18 hours, 35° C., monohydrochloride
Summary of the method: as §1

[28] = system: Streptococcus faecalis VGH 84-69; details: 18 hours, 35° C., monohydrochloride
Summary of the method: as §1

[29] = system: Enterobacter aerogenes VGH 84-36; details: Klebsiella aerogenes, VGH8436, 18 hours, 35° C., read-out: MIC
Summary of the method: as §1

[30] = system: Enterobacter cloacae K 84-10; details: 35° C.
Summary of the method: as §1

[31] = system: Enterobacter cloacae VGH 84-37; details: Enterobacter cloacae, VGH8437, 18 h, 35° C., read-out: MIC
Summary of the method: as §1

[32] = system: Escherichia coli CMC 84-16; details: Escherichia coli, CMC8416, 18 h, 35° C., read-out: MIC
Summary of the method: as §1

Escherichia coli NAR 311 = details: NAR311, 18 hours, 35° C., read-out: MIC
Summary of the method: as §1

[33] = system: Escherichia coli PRNT 311; details: PRNT311, 18 hours, 35° C., read-out: MIC
Summary of the method: as §1

[34] = system: Klebsiella oxytoca MOR 84-28; details: MOR8428, 18 hours, 35° C.
Summary of the method: as §1

Klebsiella pneumoniae AD = details: Klebsiella pneumoniae, 18 h, 35° C., read-out: MIC
Summary of the method: as §1

[35] = system: Klebsiella pneumoniae MOR 84-4; details: Klebsiella pneumoniae, MOR844, 18 h, 35° C., read-out: MIC
Summary of the method: as §1

[36] = system: Morganella morganii VGH 84-11; details: VGH8411, 18 hours, 35° C., read-out: MIC
Summary of the method: as §1

[37] = system: Proteus rettgeri CMC 84-41; details: 35° C.
Summary of the method: as §1

[38] = system: Pseudomonas aeruginosa LL-1244; details: Pseudomonas aeruginosa, LL1244, 18 h, 35° C., read-out: MIC
Summary of the method: as §1

[39] = system: Pseudomonas aeruginosa VGH 84-4; details: Pseudomonas aeruginosa, VGH844, 18 h, 35° C., read-out: MIC
Summary of the method: as §1

[40] = system: Serratia marcescens F 0-35; details: Serratia marcescens, F035, 18 h, 35° C., read-out: MIC
Summary of the method: as §1

[41] = system: Staphylococcus Spp saprophiticus VGH 84-50; details: 18 hours, 35° C., read-out: MIC
Summary of the method: as §1

[42] = system: Staphylococcus aureus ATCC 25913; details: ATCC25913, 18 hours, 35° C.
Summary of the method: as §1

[43] = system: Staphylococcus aureus ATTC 29213; details: 35° C.
Summary of the method: as §1

[44] = system: Staphylococcus aureus CMC 83-127; details: Staphylococcus aureus, CMC83127, 18 h, 35° C., read-out: MIC
Summary of the method: as §1

[45] = system: Staphylococcus aureus CMC 83-128; details: CMC83128, 18 hours, 35° C., read-out: MIC
Summary of the method: as §1

[46] = system: Staphylococcus aureus VGH 84-46; details: Staphylococcus aureus, VGH8446, 18 h, 35° C., read-out: MIC
Summary of the method: as §1

[47] = system: Staphylococcus epidermidis CMC 83-135; details: CMC83135, 18 hours, 35° C., read-out: MIC
Summary of the method: as §1

[48] = system: Staphylococcus epidermidis IO 83-58; details: IO8358, 18 hours, 35° C., read-out: MIC
Summary of the method: as §1

[49] = system: Staphylococcus epidermidis VGH 84-40; details: VGH8440, 18 hours, 35° C., read-out: MIC
Summary of the method: as §1

[50] = system: Streptococcus faecalis ATTC 29212; details: Enterococcus faecalis, ATTC29212, 18 hours, 35° C., read-out: MIC
Summary of the method: as §1

[51] = system: Streptococcus faecalis VGH 84-65; details: Enterococcus faecalis, VGH8465, 18 h, 35° C., read-out: MIC
Summary of the method: as §1

Escherichia coli LL 311 = details: Escherichia coli, LL311, 18 h, 35° C., read-out: MIC
Summary of the method: as §1

[52] = system: Pseudomonas aeruginosa CMC 83-20; details: 18 hours, 35° C., monohydrochloride
Summary of the method: as §1

[53] = system: Pseudomonas aeruginosa K 84-16; details: 18 hours, 35° C., monohydrochloride
Summary of the method: as §1

[54] = system: Pseudomonas aeruginosa VGH 84-3; details: 18 hours, 35° C., monohydrochloride
Summary of the method: as §1

[55] = system: Serratia marcescens VGH 84-30; details: Serratia marcescens, VGH8430, 18 h, 35° C., read-out: MIC
Summary of the method: as §1

[56] = Morganella morganii, CMC8437, 18 h, read-out: MIC
[57] = Staphylococcus aureus, 18 h, read-out: MIC
[58] = Staphylococcus aureus, VGH8445, 18 h, read-out: MIC

MIC [1]: 0.5 µg/mL | MIC [2]: 0.25 µg/mL | MIC ([3]; 18 hours, monohydrochloride): 0.03 µg/mL and 0.06 µg/mL | MIC ([4]; 18 hours, monohydrochloride): 0.03 µg/mL | MIC [5]: 0.25 µg/mL | MIC [6]: 0.12 µg/mL | MIC [7]: 0.12 µg/mL | MIC [8]: 0.25 µg/mL | MIC [9]: 0.5 µg/mL | MIC [10]: 0.5 µg/mL | MIC ([11]; 18 hours, monohydrochloride): 0.12 µg/mL | MIC [12]: 0.25 µg/mL | MIC [13]: 0.25 µg/mL | MIC [14]: 0.5 µg/mL | MIC [15]: 0.5 µg/mL | MIC [16]: 16 µg/mL | MIC [17]: 16 µg/mL | MIC ([18]; 18 hours, monohydrochloride): 0.25 µg/mL | MIC [19]: 0.5 µg/mL | MIC [20]: 0.25 µg/mL | MIC [21]: 2 µg/mL | MIC ([22]; 18 hours, monohydrochloride): 0.03 µg/mL | MIC ([23]; 18 hours, monohydrochloride): 0.03 µg/mL | MIC [24]: 0.12 µg/mL | MIC [25]: 2 µg/mL | MIC ([26]; 18 hours): 2 µg/mL | MIC [27]: 4 µg/mL | MIC [28]: 2 µg/mL
SMILES: O=C(O)c1cn(C2CC2)c2cc(N3CCNC(c4ccccn4)C3)c(F)cc2c1=O (stereo not drawn) [Example 129, 1-Cyclopropyl-6-fluoro-1,4-dihydro-4-oxo-7-[3-(2-pyridinyl) -1-piperazinyl]-3-quinolinecarboxylic acid, monohydrochloride]

MIC [29]: > 256 µg/mL | MIC ([30]; Enterobacter cloacae, K8410, 18 h, read-out: MIC): > 256 µg/mL | MIC [31]: > 256 µg/mL | MIC ([3]; Escherichia coli, ATCC25922, 18 h, read-out: MIC): > 256 µg/mL | MIC ([4]; Escherichia coli, CMC8411, 18 h, read-out: MIC): > 256 µg/mL | MIC [32]: > 256 µg/mL | MIC (Escherichia coli NAR 311): > 256 µg/mL | MIC [33]: > 256 µg/mL | MIC [34]: > 256 µg/mL | MIC (Klebsiella pneumoniae AD): > 256 µg/mL | MIC [35]: > 256 µg/mL | MIC [11, 56]: 256 µg/mL (≈ 550 µM) | MIC [36]: 256 µg/mL (≈ 550 µM) | MIC ([37]; Providencia rettgeri, CMC8441, 18 h, read-out: MIC): 256 µg/mL (≈ 550 µM) | MIC [38]: > 256 µg/mL | MIC [39]: > 256 µg/mL | MIC [40]: > 256 µg/mL | MIC ([18]; Serratia marcescens, K8418, 18 h, read-out: MIC): > 256 µg/mL | MIC [41]: 32 µg/mL (≈ 68.7 µM) | MIC [42]: 4 µg/mL (≈ 8.59 µM) | MIC ([43]; Staphylococcus aureus, ATTC29213, 18 h, read-out: MIC): 4 µg/mL (≈ 8.59 µM) | MIC [44]: 0.5 µg/mL (≈ 1.07 µM) | MIC [45]: 4 µg/mL (≈ 8.59 µM) | MIC [22, 57]: 2 µg/mL (≈ 4.3 µM) | MIC [23, 58]: 2 µg/mL (≈ 4.3 µM) | MIC [46]: 2 µg/mL (≈ 4.3 µM) | MIC [47]: 2 µg/mL (≈ 4.3 µM) | MIC [48]: 8 µg/mL (≈ 17.2 µM) | MIC [49]: 0.5 µg/mL (≈ 1.07 µM) | MIC [50]: 256 µg/mL (≈ 550 µM) | MIC [51]: 256 µg/mL (≈ 550 µM)
SMILES: CCn1cc(C(=O)O)c(=O)c2cc(F)c(N3CCNC(c4sc5ccccc5c4C)C3)cc21 (stereo not drawn) [Example 22, 1-Ethyl-6-fluoro-1,4-dihydro-7-[3-(3-methylbenzo[b]-thien-2-yl)-1-piperazinyl]-4-oxo-3-quinolinecarboxylic acid]

MIC ([30]; 18 hours, monohydrochloride): 0.06 µg/mL | MIC [1]: 0.25 µg/mL | MIC ([3]; 18 hours, monohydrochloride): 0.06 µg/mL and 0.12 µg/mL | MIC (Escherichia coli LL 311): 0.03 µg/mL | MIC [11, 56]: 0.12 µg/mL | MIC [12]: 0.12 µg/mL | MIC ([37]; 18 hours, monohydrochloride): 0.12 µg/mL | MIC [16]: 8 µg/mL | MIC [52]: 4 µg/mL | MIC [53]: 4 µg/mL | MIC [38]: 4 µg/mL | MIC [54]: 16 µg/mL | MIC [39]: 2 µg/mL | MIC [17]: 8 µg/mL | MIC ([18]; 18 hours, monohydrochloride): 0.5 µg/mL | MIC [19]: 0.25 µg/mL | MIC [55]: 8 µg/mL | MIC ([43]; 18 hours, monohydrochloride): 0.03 µg/mL | MIC [21]: 0.03 µg/mL | MIC [22, 57]: < 0.015 µg/mL | MIC [23, 58]: < 0.015 µg/mL | MIC [25]: 0.5 µg/mL | MIC ([26]; Enterococcus faecalis, UCI8519, 18 h, read-out: MIC): 0.5 µg/mL | MIC [27]: 0.5 µg/mL | MIC [51]: 0.5 µg/mL
SMILES: O=C(O)c1cn(C2CC2)c2cc(N3CCNC(c4ccco4)C3)c(F)cc2c1=O (stereo not drawn) [Example 99, 1-Cyclopropyl-6-fluoro-1,4-dihydro-4-oxo-7-[3-(2-furanyl) -1-piperazinyl-3-quinolinecarboxylic acid, monohydrochloride]
